Reference: PMC11401861, “Assessment of the in vitro anti-diabetic activity with molecular dynamic simulations of limonoids isolated from Adalia lemon peels” (Scientific Reports, 2024)
≈ marks a conversion by molar mass, not a printed value.

Legend:
α-glucosidase [1] = test: SDS-PAGE electrophoretic α-glucosidase pattern; assay type: biochemical; conditions: 100 µg/mL
Experimental: (§1) The relative mobility (Rf), band quantity (Qty) and band percent (B%) of the electrophoretically detected isoenzyme types on the PAGE plate were determined using the Quantity One software program (version 4.6.2). The equation proposed by Nei and Li[39] was used to calculate the percentages of similarity index (SI%) and physiological difference (Diff%).

α-glucosidase [2] = test: α-Glucosidase enzyme inhibition assay; assay type: biochemical
Experimental: (§2) All in vitro biological activities of the limonoids-rich extract and the isolated compounds were assayed in triplicate at three different concentrations (50, 100, and 200 µg/mL).
(§3) The IC50 of each tested sample was determined by plotting a curve using a series of sample concentrations against the percent of enzyme inhibition.

α-amylase [3] = test: α-Amylase enzyme inhibition assay; assay type: biochemical
Experimental: as §2, §3

α-amylase [4] = test: Native electrophoretic α-amylase isoenzyme pattern (PAGE); assay type: biochemical; conditions: standard enzyme treated with 100 µg/mL
Experimental: as §1

[5] = Nitric oxide (NO) radical scavenging activity (Griess Illosvory reagent); conditions: for IC50 against NO radical: Fig. 2a
Experimental: as §2
The nitric oxide (NO) radical scavenging activity was estimated by the reaction with Griess Illosvory reagent based on the method proposed by Chakraborthy[34]. The NO scavenging capacities of the samples were compared with that of ascorbic acid. The percent inhibition of the NO radical was calculated. The IC50 of each tested sample was determined by plotting a curve using a series of sample concentrations against the percent of NO inhibition.

[6] = Total antioxidant capacity (TAC), method of Prieto et al.
Experimental: as §2
The method proposed by Prieto et al.[30] was used to determine the total antioxidant capacity (TAC) expressed as mg […] equivalent per gram weight, using ascorbic acid at the same concentrations as a standard.

[7] = ABTS radical scavenging assay; conditions: for IC50 against ABTS radical: Fig. 2a
Experimental: as §2
The ABTS scavenging capacities of the samples were compared with that of ascorbic acid. The percent inhibition of the ABTS radical was calculated. The IC50 of each tested sample was determined by plotting a curve using a series of sample concentrations against the percent of ABTS inhibition.

[8] = Iron reducing power (IRP), method of Oyaizu
[9] = DPPH radical scavenging activity; conditions: for IC50 against DPPH radical: Fig. 2a
Experimental: as §2
The 1,1-Diphenyl-2-picryl-hydrazyl (DPPH) radical scavenging activity was evaluated using the method described by Rahman et al.[32]. Ascorbic acid was used as a positive control at the same concentrations. The inhibition percentage of the DPPH free radical was calculated. The median inhibitory concentration (IC50) of each tested sample was determined by plotting a curve using a series of sample concentrations against the percentage of DPPH inhibition.

Compound | α-Glucosidase Inhibition (%) (α-glucosidase [2]; sample concentration 50 µg/mL) | α-Glucosidase Inhibition (%) (α-glucosidase [2]; sample concentration 100 µg/mL) | α-Glucosidase Inhibition (%) (α-glucosidase [2]; sample concentration 200 µg/mL) | α-Amylase Inhibition (%) (α-amylase [3]; sample concentration 50 µg/mL) | α-Amylase Inhibition (%) (α-amylase [3]; sample concentration 100 µg/mL) | α-Amylase Inhibition (%) (α-amylase [3]; sample concentration 200 µg/mL) | Change in electrophoretic α-amylase isoenzyme pattern (α-amylase [4]) | NO Inhibition (%) ([5]; sample concentration 50 µg/mL) | NO Inhibition (%) ([5]; sample concentration 100 µg/mL) | NO Inhibition (%) ([5]; sample concentration 200 µg/mL) | TAC ([6]; sample concentration 50 µg/mL) [mg gallic acid/g] | TAC ([6]; sample concentration 100 µg/mL) [mg gallic acid/g] | TAC ([6]; sample concentration 200 µg/mL) [mg gallic acid/g] | ABTS Inhibition (%) ([7]; sample concentration 50 µg/mL) | ABTS Inhibition (%) ([7]; sample concentration 100 µg/mL) | ABTS Inhibition (%) ([7]; sample concentration 200 µg/mL) | IRP ([8]; sample concentration 50 µg/mL) [µg/mL] | IRP ([8]; sample concentration 100 µg/mL) [µg/mL] | IRP ([8]; sample concentration 200 µg/mL) [µg/mL] | DPPH Inhibition (%) ([9]; sample concentration 50 µg/mL) | also measured
C[C@H]1O[C@H](O[C@H]2[C@H](O)[C@@H](O)[C@@H](O[C@H]3[C@H](O)[C@@H](O)C(O)O[C@@H]3CO)O[C@@H]2CO)[C@H](O)[C@@H](O)[C@@H]1N[C@H]1C=C(CO)[C@@H](O)[C@H](O)[C@H]1O (stereo partly shown) [Acarbose, acarbose, reference compound] | 17.69 ± 0.08 | 29.73 ± 0.13 | 52.92 ± 0.23 | 21.84 ± 0.08 | 37.12 ± 0.13 | 66.07 ± 0.23 | complete denaturation |  |  |  |  |  |  |  |  |  |  |  |  |  | Change in electrophoretic α-glucosidase pattern (α-glucosidase [1]): complete denaturation
O=C1O[C@H]([C@@H](O)CO)C(O)=C1O [Ascorbic Acid, ascorbic acid, reference compound] |  |  |  |  |  |  |  | 21.02 ± 0.07 | 36.27 ± 0.11 | 64.55 ± 0.20 | 30.09 ± 0.08 | 53.56 ± 0.14 | 95.34 ± 0.25 | 24.94 ± 0.08 | 42.64 ± 0.13 | 75.90 ± 0.23 | 23.95 ± 0.07 | 42.64 ± 0.13 | 75.90 ± 0.23 | 26.17 ± 0.07 | IC50 against NO radical [5]: 5.17 ± 0.03 µg/mL (≈ 29.4 µM); IC50 against ABTS radical [7]: 4.17 ± 0.02 µg/mL (≈ 23.7 µM); IC50 against DPPH radical [9]: 4.74 ± 0.02 µg/mL (≈ 26.9 µM); DPPH Inhibition (%) ([9]; sample concentration 100 µg/mL): 45.43 ± 0.11%; DPPH Inhibition (%) ([9]; sample concentration 200 µg/mL): 80.87 ± 0.20%
CC1(C)O[C@H]2CC(=O)OC[C@]23[C@H]2CC[C@@]4(C)[C@H](c5ccoc5)OC(=O)[C@H]5O[C@]54[C@]2(C)C(=O)C[C@@H]13 [Cpd1, limonin] | 1.37 ± 0.03 | 2.44 ± 0.04 | 4.34 ± 0.08 | 4.52 ± 0.03 | 8.05 ± 0.04 | 14.32 ± 0.08 | no qualitative or quantitative variations | 5.95 ± 0.02 | 10.60 ± 0.04 | 18.87 ± 0.07 | 12.77 ± 0.03 | 22.73 ± 0.04 | 40.46 ± 0.08 | 7.62 ± 0.03 | 13.56 ± 0.04 | 24.14 ± 0.08 | 7.62 ± 0.03 | 13.56 ± 0.04 | 24.14 ± 0.08 | 11.10 ± 0.02 | Diff% (decrease in the quantity of the identified α-glucosidase band) (α-glucosidase [1]): 3.83%; Qty (band quantity) of the α-glucosidase band (α-glucosidase [1]): 17.95; DPPH Inhibition (%) ([9]; sample concentration 100 µg/mL): 19.77 ± 0.04%; DPPH Inhibition (%) ([9]; sample concentration 200 µg/mL): 35.18 ± 0.07%; Diff% (physiological difference) of electrophoretic α-amylase pattern from the standard enzyme (α-amylase [4]): 0.00%; SI% (similarity index) of electrophoretic α-amylase pattern to the standard enzyme (α-amylase [4]): 100.00%
CC(=O)O[C@H]1CC(=O)OC(C)(C)[C@@H]2CC(=O)[C@]3(C)[C@H](CC[C@@]4(C)[C@H](c5ccoc5)OC(=O)[C@H]5O[C@]543)[C@@]12C [Cpd3, nomilin] | 1.50 ± 0.03 | 2.67 ± 0.05 | 4.75 ± 0.08 | 4.65 ± 0.03 | 8.27 ± 0.05 | 14.73 ± 0.08 | no qualitative or quantitative variations | 6.07 ± 0.02 | 10.80 ± 0.04 | 19.22 ± 0.07 | 12.90 ± 0.03 | 22.96 ± 0.05 | 40.87 ± 0.08 | 7.75 ± 0.03 | 13.79 ± 0.05 | 24.55 ± 0.08 | 7.75 ± 0.03 | 13.79 ± 0.05 | 24.55 ± 0.08 | 11.22 ± 0.02 | Diff% (decrease in the quantity of the identified α-glucosidase band) (α-glucosidase [1]): 7.51%; Qty (band quantity) of the α-glucosidase band (α-glucosidase [1]): 17.26; DPPH Inhibition (%) ([9]; sample concentration 100 µg/mL): 19.96 ± 0.04%; DPPH Inhibition (%) ([9]; sample concentration 200 µg/mL): 35.53 ± 0.07%; Diff% (physiological difference) of electrophoretic α-amylase pattern from the standard enzyme (α-amylase [4]): 0.00%; SI% (similarity index) of electrophoretic α-amylase pattern to the standard enzyme (α-amylase [4]): 100.00%
CC1(C)OC(=O)C=C[C@]2(C)[C@H]3CC[C@@](C)([C@@H](O[C@@H]4O[C@H](CO)[C@@H](O)[C@H](O)[C@H]4O)c4ccoc4)[C@@]4(O[C@@H]4C(=O)O)[C@]3(C)C(=O)C[C@@H]12 [Cpd4, obacunone 17-O-β-D-glucopyranoside] | 14.78 ± 0.07 | 26.30 ± 0.13 | 46.81 ± 0.23 | 18.93 ± 0.07 | 33.69 ± 0.13 | 59.96 ± 0.23 | severe abnormalities | 18.48 ± 0.06 | 32.90 ± 0.11 | 58.55 ± 0.20 | 27.18 ± 0.07 | 48.37 ± 0.13 | 86.10 ± 0.23 | 22.03 ± 0.07 | 39.20 ± 0.13 | 69.78 ± 0.23 | 22.03 ± 0.07 | 39.20 ± 0.13 | 69.78 ± 0.23 | 23.63 ± 0.06 | Diff% (decrease in the quantity of the identified α-glucosidase band) (α-glucosidase [1]): 64.41%; Qty (band quantity) of the α-glucosidase band (α-glucosidase [1]): 6.64; IC50 against NO radical [5]: 5.70 ± 0.03 µg/mL (≈ 8.98 µM); IC50 against α-glucosidase (α-glucosidase [2]; Fig. 2b): 2.46 ± 0.02 µg/mL (≈ 3.88 µM); IC50 against ABTS radical [7]: 4.53 ± 0.02 µg/mL (≈ 7.14 µM); IC50 against DPPH radical [9]: 5.12 ± 0.02 µg/mL (≈ 8.07 µM); DPPH Inhibition (%) ([9]; sample concentration 100 µg/mL): 42.06 ± 0.11%; DPPH Inhibition (%) ([9]; sample concentration 200 µg/mL): 74.87 ± 0.20%; IC50 against α-amylase (α-amylase [3]; Fig. 2b): 3.61 ± 0.02 µg/mL (≈ 5.69 µM); Diff% (physiological difference) of electrophoretic α-amylase pattern from the standard enzyme (α-amylase [4]): 100.00%; SI% (similarity index) of electrophoretic α-amylase pattern to the standard enzyme (α-amylase [4]): 0.00%
